{"source": "patent US20160073633A1", "about": "“CROP ENHANCEMENT” (SYNGENTA PARTICIPATIONS AG, priority 2013, published 2016)", "key": {"potato tubers [1]": {"test_system": "potato tubers", "assay": "Experiment 1.1: azoxystrobin sprayed on uncovered potato tubers, no cold stress, plant growth vs check", "assay_type": "in vivo", "experimental": "A commercially available SC100 formulation of azoxystrobin was sprayed directly to uncovered potato tubers, which were sitting on soil (50% drench soil mixed with 50% sand), at two different rates: • 7.5 g/ha • 3.8 g/ha\n(§1) The spray volume was 200 l/ha.\n(§2) The check had no treatment of azoxystrobin.\n(§3) The trials were repeated in 6 troughs with 3 tubers each.\nVarieties tested were Allians, Belana, Marabel and Roberta. Each were tested as pre-germinated (i.e. treatment was applied when the potato tuber had 2-3 mm long sprouts) tubers and as non germinated tubers.\nThe temperature was about 17° C. during the day and about 15° C. during the night.\n(§4) No pest pressure present.\nPlant vitality was measured with the “Green Seeker” system."}, "potato tubers [2]": {"test_system": "potato tubers", "assay": "Experiment 1.2: azoxystrobin sprayed on uncovered pre-germinated potato tubers at about 10° C. (simulated cold stress), plant growth vs check", "assay_type": "in vivo", "details": "3 g/ha; for % increased growth vs Check (visual plant growth): pre-germinated, 21 days after application", "experimental": "A commercially available SC100 formulation of azoxystrobin was sprayed directly to uncovered potato tubers, which were sitting on soil (50% drench soil mixed with 50% sand), at: • 3 g/ha\nas §1, §2, §3\nVarieties tested were Allians, Belana, Marabel and Roberta. Each were tested as pre-germinated (i.e. treatment was applied when the potato tuber had 2-3 mm long sprouts) tubers.\nThe temperature was held at about 10° C. during the day and night to simulate cold stress.\nas §4\nVisual Plant Growth was Measured 21 Days after Application: […]"}, "[3]": {"details": "21 and 34 days after application"}}, "note": "“Also recorded” adds a separate entry of the source.", "data": [{"compound": "CO/C=C(/C(=O)OC)c1ccccc1Oc1cc(Oc2ccccc2C#N)ncn1", "note": "[azoxystrobin]", "values": [{"measurement": "Shoot number in comparison with the check", "setting": "potato tubers [1]; 7.5 g/ha and 3.8 g/ha, spray 200 l/ha, about 17° C. day/15° C. night, Allians, Belana, Marabel, Roberta, pre-germinated and non germinated tubers", "result": "increased number of shoots"}, {"measurement": "Shoot fresh mass in comparison with the check", "setting": "potato tubers [1]; 7.5 g/ha and 3.8 g/ha, spray 200 l/ha, about 17° C. day/15° C. night, all varieties", "result": "increased shoot fresh mass; also recorded: significantly increased"}, {"measurement": "Plant vitality (Green Seeker) vs check", "setting": "potato tubers [1]; Allians and Roberta, pre-germinated tubers, about 17° C. day/15° C. night", "result": "better than check"}, {"measurement": "Plant vitality (Green Seeker) in comparison with the check, FIG. 3", "setting": "potato tubers [1]; each trial, 7.5 g/ha and 3.8 g/ha", "result": "increased plant vitality"}, {"measurement": "Plant vitality (Green Seeker) vs check", "setting": "potato tubers [1]; low rate treatment (3.8 g/ha), about 17° C. day/15° C. night", "result": "often showed a lower value"}, {"measurement": "Number of shoots in comparison with the check", "setting": "potato tubers [2]; [3]", "result": "increased number of shoots"}, {"measurement": "Shoot length in comparison with the check", "setting": "potato tubers [2]; [3]", "result": "increased shoot length"}, {"measurement": "Visually more shoot than check", "setting": "potato tubers [2]; across varieties", "result": "up to 38%"}, {"measurement": "Growth of treated tubers vs untreated check", "setting": "potato tubers [2]; all varieties", "result": "grew better than untreated check"}, {"measurement": "% increased growth vs Check (visual plant growth)", "setting": "potato tubers [2]; variety Allians", "result": 38, "unit": "%"}, {"measurement": "% increased growth vs Check (visual plant growth)", "setting": "potato tubers [2]; variety Belana", "result": 12, "unit": "%"}, {"measurement": "% increased growth vs Check (visual plant growth)", "setting": "potato tubers [2]; variety Marabel", "result": 37, "unit": "%"}, {"measurement": "% increased growth vs Check (visual plant growth)", "setting": "potato tubers [2]; variety Roberta", "result": 10, "unit": "%"}]}]}
